Patent publication US12616196B2, “Long protection mosquito repellent ointment” (MAIA AFRICA SAS, priority 2019, dated 2026)

Key:
[1] = test system: Anopheles funestus; experiment: Field human landing catches, Goden village; format: in vivo; settings: total catch during the tests, collection 6 pm to 6 am
Protocol: (§1) The protection time provided by ointment No. 9 of Example 1 has been measured according to the “Guidelines for efficacy testing of mosquito repellents for human skin” published by the World Health Organization in 2009 (noted hereafter “WHO Guidelines, 2009”). These guidelines describe how human landing catches must be performed on volunteers. The effectiveness of ointment No. 9 was evaluated and compared to a 20% ethanol solution of DEET (N, N-Diethyl-3-methylbenzamide), being the positive control, and an ethanol solution being the negative control.
(§2) Briefly, the study was carried out in real conditions at the Goden village (12°25′N, 1°20′W), a rural village in the locality of Gampela, 25 km north-east of Ouagadougou, the capital city of Burkina Faso. Goden is in the Sudanian Savanna with approximately 800 inhabitants mainly belonging to the Mossi ethnic group, mostly devoted to agriculture and rearing few animals such as dogs, pigs and others. Goden is known for its high density of malaria vectors due to its proximity to the Massiri river. This study was carried out during the high malaria transmission period, when the mosquito density was the highest A preliminary assessment of the collection site was carried out by undertaking captures on human volunteers before the tests themselves. […]

[2] = test system: Other Anopheles; experiment: Field human landing catches, Goden village; format: in vivo; settings: total catch during the tests, collection 6 pm to 6 am
Protocol: as §1, §2

[3] = test system: An. arabiensis (Kingani), An. gambiae s.s. (Kisumu), Ae. aegypti (Bagamoyo); experiment: Semi-field system (SFS), all species tested; format: in vivo, Anopheles and Aedes mosquitoes
Protocol: (§3) The study was conducted under ambient condition in the semi-field system (SFS) located in Bagamoyo district at the Ifakara Health Institute at Bagamoyo branch in Tanzania. Bagamoyo is located on the coast region of the Indian Ocean between latitudes 6° and 8′ South and between longitudes 30° and 37′ East. The district experience annual rainfall ranging between 800 mm and 1000 mm, temperature ranging between 22° C. and 33° C., and mean relative humidity of 73%.
Three laboratory-reared mosquito strains, aged 6 days old, sugar starved for 8 hours, nulliparous females, reactive to human odor on the day of the experiment, have been used for this experiment. […]
(§4) Volunteers wore shorts, closed shoes and bug jacket to ensure mosquitoes had access to the lower limbs only. […] After application, an empty plastic cups were weighed to determine the quantity of repellent left in the cup. […]
(§5) During the last 9 days, we used same volunteers, compartments and rotation schedule. […] Volunteers recorded a time the first mosquito of each species landed on the limb and the recaptured mosquito was placed in a paper cup labelled with volunteers unique identification code, time of collection, position and treatment code. […]

[4] = test system: Anopheles gambiae s.l.; experiment: Field human landing catches on treated lower legs, Goden village (WHO Guidelines 2009); format: in vivo; settings: for Median CPT (complete protection time): Kaplan-Meier
Protocol: as §1
Briefly, the study was carried out in real conditions at the Goden village (12°25′N, 1°20′W), a rural village in the locality of Gampela, 25 km north-east of Ouagadougou, the capital city of Burkina Faso. Goden is in the Sudanian Savanna with approximately 800 inhabitants mainly belonging to the Mossi ethnic group, mostly devoted to agriculture and rearing few animals such as dogs, pigs and others. Goden is known for its high density of malaria vectors due to its proximity to the Massiri river. This study was carried out during the high malaria transmission period, when the mosquito density was the highest A preliminary assessment of the collection site was carried out by undertaking captures on human volunteers before the tests themselves.
A total of twenty volunteers have been recruited from the Goden village and have been trained for the nocturnal collection of mosquitoes on human bait using mouth aspirator and flash torch known as Human Landing Catches (HCL). The age of the volunteers ranged from 18 to 50 years old. After receiving explanation of the aims, benefits and risks of the study, they signed a written informed consent. The composition of the ointment was not disclosed to the volunteers. Volunteers were instructed not to use any fragranced soap or perfume, tobacco or alcohol 12 hours before the start and throughout the experiments. Before applying treatments, the lower leg of volunteers was washed with neutral soap, rinsed with 70% of ethanol solution and naturally dried. Once their legs treated volunteers were also asked to avoid rubbing, touching or wetting the repellent-treated area.
Three treatments have been carried out in the study: • (i) one negative control (ethanol 100%), • (ii) two treatments of 20% DEET diluted in ethanol 100% of technical quality used as a positive control, since this repellent is considered as the reference, • (iii) two treatments of ointment No. 9.
The products were applied to the bare leg of the volunteers and the areas of application were exposed to mosquito bites in the field. Volunteers applied to their exposed leg: Ointment No. 9 at a dosage of 2 mg/cm^2, and 20% DEET in ethanol for the positive control at a dosage of 1 ml per 600 cm^2.
To establish the amount of repellent required for application in the experiments, the surface area of the leg of each volunteer were determined by first measuring the circumferences expressed in centimeter (cm) just below the knee, and above the ankle, multiplied by the length of the lower leg, measured from the knee to the ankle. The surface area (in cm^2) of skin was calculated according to formula (1) below: Area=½(Ck+Ca)Dka, (1) wherein Ck is the circumference below the knee in cm, Ca is the circumference above the ankle in centimeter, and Dka is the distance in centimeter between Ca and Ck. The amount needed for each volunteer was then determined depending on their leg length. In addition, the quantity of product left in bottles was weighed using a precision weighing balance (KERN & SOHN GmbH) to determine the amount applied by each volunteer. Overall, the average amount applied was 2.4±0.2 g per 1189±79.2 cm^2 and per volunteer's lower leg, leading to 2 mg/cm^2 of Ointment No. 9 and […] of a 20% DEET solution.
Volunteers were divided into five groups of four volunteers. All the members of a group received the same treatment at the same time. […]

[5] = test system: Ae. aegypti (Bagamoyo); experiment: Semi-field system (SFS) recapture of released mosquitoes on treated lower limbs; format: in vivo, Aedes aegypti
Protocol: as §3
(§6) Three laboratory-reared mosquito strains, aged 6 days old, sugar starved for 8 hours, nulliparous females, reactive to human odor on the day of the experiment, have been used for this experiment. Mosquito strains used were: (i) the pyrethroid insecticide resistant (20% mortality) An. arabiensis (Kingani, (ii) fully pyrethroid susceptible An. gambiae s.s. (Kisumu) and (iii) Ae. aegypti (Bagamoyo). The vector control product-testing unit of IHI supplied all mosquitoes used in the experiments.
The mosquitoes were reared in the insectary following MR4 guideline (MR4. Methods in Anopheles Research 2016; 2015 Edition). Adults were kept inside cages measuring 30 cm×30 cm×30 cm. Only hyperactive mosquitoes were selected at least 8 hours before the experiment. […] About 30 minutes before the experiment, mosquitoes were transferred to the SFS to acclimatize the environmental conditions. […]
as §4, §5

[6] = test system: An. gambiae s.s. (Kisumu); experiment: as above; format: in vivo
Protocol: as §3, §6
(§7) The mosquitoes were reared in the insectary following MR4 guideline (MR4. Methods in Anopheles Research 2016; 2015 Edition). Adults were kept inside cages measuring 30 cm×30 cm×30 cm. Only hyperactive mosquitoes were selected at least 8 hours before the experiment. […] About 30 minutes before the experiment, mosquitoes were transferred to the SFS to acclimatize the environmental conditions. The SFS offered the following advantages; 1) volunteers were exposed to laboratory-reared mosquitoes only, 2) experiments were run using a known number of mosquitoes throughout the experiments; 3) mosquitoes used were of known age (6 days), physiological status and avidity. These features improve data quality and less results variability between days and volunteers.
(§8) Three treatments have been tested: (i) Ethanol 100% as a negative control, (ii) 20% DEET diluted in ethanol 100% as a positive control, and (iii) ointment No. 9.
(§9) Volunteers wore shorts, closed shoes and bug jacket to ensure mosquitoes had access to the lower limbs only. Volunteers applied 20% DEET and ointment No. 9 at an average rate of 2 mg/cm^2 of the repellent to the lower limbs using latex glove to minimize absorption onto volunteer's hand. After application, an empty plastic cups were weighed to determine the quantity of repellent left in the cup. The composition of the ointment was not disclosed to the volunteers.
(§10) The study was divided into two experiments: one for Anopheles mosquitoes conducted in the late evening and the other for Ae. aegypti mosquitoes conducted early in the morning. The experiment for Anopheles started at 17:55 and that for Ae. aegypti at 06:00 hours.
(§11) The experiments were conducted for a total of 18 days. During the first 9 days 100 mosquitoes (50 per species) were released in each compartment starting at 18:00 hours for Anopheles species and at 06:00 hours for Ae. aegypti. After the release, the number of mosquitoes recaptured by volunteers who applied 20% DEET and ointment No. 9 was insignificant up to 6 hours of recapture period. This warranted to extend the recapture period to 12 hours 9 last days.
(§12) During the last 9 days, we used same volunteers, compartments and rotation schedule. Mosquitoes released were 100 per species and volunteers recaptured mosquitoes landing on their lower limbs using a mouth aspirator up to 12 hours of recapture period. Volunteers recorded a time the first mosquito of each species landed on the limb and the recaptured mosquito was placed in a paper cup labelled with volunteers unique identification code, time of collection, position and treatment code. The volunteer kept collecting subsequent mosquitoes up to 12 hours with cups changed after every hour.
(§13) At the end of recapture time, mosquitoes were killed by putting in the refrigerator for about 30 minutes and then sorted to species level. If the mosquito recaptured in the control was below 50 percent, the experiment was considered invalid, data discarded and the experiment repeated. […]

[7] = test system: An. arabiensis (Kingani); experiment: as above; format: in vivo
Protocol: as §3, §6, §7, §8, §9, §10, §11, §12, §13

[8] = test system: Culicine; experiment: Field human landing catches, Goden village; format: in vivo, Culicine (Aedes); settings: total catch during the tests, collection 6 pm to 6 am
Protocol: as §1, §2

[9] = test system: mosquitoes; experiment: Field human landing catches, hourly mosquito biting rate; format: in vivo; settings: with 95% CI
Protocol: as §1, §2

CCN(CC)C(=O)c1cccc(C)c1 [20% DEET, N,N-diethyl-3-méthylbenzamide]
mosquitoes caught by treatment [1]: 1
mosquitoes caught by treatment [2]: 1
protective efficacy ([3]; 6-hour recapture time, all species tested): 100%
number of mosquitoes recaptured ([3]; up to 6 hours of recapture period): insignificant
percentage of repellency ([4]; after 3 h (10 hours after application)): under 80%
Median CPT (complete protection time) ([4]; indoor and outdoor together): 480 min
Median CPT (complete protection time) ([4]; indoor): 480 min
Median CPT (complete protection time) ([4]; outdoor): 480 min
mosquitoes caught by treatment ([4]; total catch during the tests, collection 6 pm to 6 am): 686
increase of protection time compared to Ethanol ([4]; versus negative control Ethanol): four-fold
Percentage protection (protective efficacy) ([5]; 12-hour recapture time): 93.1%
Percentage recapture ([5]; 12-hour recapture time): 4.8%
Average CRT (average complete protection time, CPT) ([5]; up to 12 hours recapture): 436.9 min
Percentage protection (protective efficacy) ([6]; 12-hour recapture time): 96.8%
Percentage recapture ([6]; 12-hour recapture time): 2.5%
Average CRT (average complete protection time, CPT) ([6]; up to 12 hours recapture): 575 min
Percentage protection (protective efficacy) ([7]; 12-hour recapture time): 97.2%
Percentage recapture ([7]; 12-hour recapture time): 2.7%
Average CRT (average complete protection time, CPT) ([7]; up to 12 hours recapture): 580.9 min
mosquitoes caught by treatment [8]: 7
average mosquito bites received per person per hour [9]: 1.01 (95%: 0.76-1.33) per person per hour
